Experimental data from patent publication US20150374784A1, “COMPOSITIONS AND METHODS FOR REDUCING GERM CELL DEATH” (Los Angeles Biomedical Research Institute at Harbor-UCLA …, priority 2014, published 2015).
Where “and” joins values, the source holds several entries; their conditions need not be identical. Equal values may be shown once.

Tests used:
STAT3 = STAT3 phosphorylation in testis by western blot; format: in vivo, mouse; conditions: testis homogenates; for STAT3 phosphorylation (phosphorylated STAT3/STAT3) compared with control: treatment alone
Experimental: (§1) For the HN analog experiments, male mice were divided into seven groups (n=4-5 per group) and received one of the following treatments and sacrificed after 24 hours: 1) vehicle (control); 2) a single intra-peritoneal (IP) injection of HN peptide [HN, 40 mg/Kg body weight (BW)]; 3) a single IP injection of CP (CP, 200 mg/Kg BW); 4) IP injection of CP and HN (CP+HN); 5) a single IP injection of each HN analog (HNG 5 mg/Kg BW, HNG-F6A 5 mg/Kg BW, HN-S7A 40 mg/Kg BW, HN-C8P 40 mg/Kg BW, or HN-L12A 40 mg/Kg BW); 6) IP injection of CP and each HN analog (CP+HNG, HNG-F6A, HN-S7A, HN-C8P, or HN-L12A); and 7) IP injection of CP+HN+HN analog (HN-S7A, HN-C8P, or HN-L12A; to assess whether the analogs has enhancing or inhibitory effect on HN).
(§2) To facilitate testicular fixation by using a whole-body perfusion technique, all animals were injected with heparin (130 IU/100 g BW, IP) 15 min before a lethal injection of sodium pentobarbital (200 mg/kg BW, IP) (Lue Y H, et al., 1999). One testis was removed and weighed after perfusion with saline. Portions of testicular parenchyma were snap frozen in liquid nitrogen, and stored at −80 C for Western blotting. The other testis was fixed by vascular perfusion with Bouin's solution, and processed with routine paraffin embedding for in situ detection of apoptosis.
Western blotting was performed as described previously (Jia Y, et al., 2009). In brief, proteins were denatured and separated by sodium dodecyl sulfate-polyacrylamide gel electrophoresis (SDS-PAGE) system (Invitrogen, Carlsbad, Calif.). After transferring, the Immuno-blot PVDF Membrane (Bio-Rad, Hercules, Calif.) was blocked for 1 h and then probed using anti-STAT3 or anti-pSer727 STAT3 (Cell signaling Technology, Inc., Beverly, Mass.) overnight at 4 C with constant shaking. After washing, membrane was then incubated with an anti-mouse (for STAT3 antibody, Santa Cruz Biotechnology, Santa Cruz, Calif.) or anti-rabbit (for pSer727 STAT3 antibody, Amersham Biosciences, Piscataway, N.J.) IgG-HRP secondary antibody. All antibodies were diluted in blocking buffer. For immunodetection, membrane was incubated with enhanced chemiluminescence solutions per the manufacturer's specifications (Amersham Biosciences, Piscataway, N.J.), and exposed to Hyperfilm ECL (Denville Scientific Inc., Metuchen, N.J.).

Leydig cells = assay: Leydig cell depletion and testosterone levels in rats; format: in vivo, rat; conditions: for intratesticular testosterone levels / serum testosterone levels: rats, EDS 80 mg/kg, CP 70 mg/kg BW, HN 40 mg/kg BW, with or without EDS pre-treatment
male germ cells [1] = format: in vivo, mouse; conditions: for germ cell apoptosis in testicular cross sections (TUNEL) compared to control: 24 hours after IP injection
Experimental: Young adult mice (12-13 weeks) were randomly divided into 4 groups with 4 or 5 mice per group and received an IP injection: control (Con) (saline), HN (40 mg/Kg BW), CP (200 mg/Kg BW), and the combination of CP+HN. These experiments were repeated four times. In the CP+HN group, mice received an injection of HN followed by an injection of CP about 15 minutes later. Twenty-four hours after injections animals were sacrificed using 5% pentobarbital (200 mg/kg BW) IP injection. Blood was collected and one testis was removed, weighed and frozen in liquid nitrogen. The mouse was next perfused with saline and then subsequently perfuse-fixed with Bouin's solution as previously described and apoptosis was assessed by TUNEL assay (Lue, et al., 2009).
For detection of apoptosis in testicular sections, the paraffin embedded testis tissue was cut into 5 micron sections and stained with the TdT-mediated dUTP nick-end labeling assay (TUNEL Apoptosis Detection Kit, Millipore, Billerica, Mass.) to detect apoptosis of germ cells in the testis (Lue, et al., 2009). Testicular sections assayed by TUNEL were examined under a light microscope and the apoptotic germ cells were blindly and manually counted. The seminiferous tubules in the testis section under the microscope were grouped as stages IX-IV (early-late stages of spermatogenesis) and V-VIII (middle stages of spermatogenesis). Germ cell apoptosis was quantified as the number of seminiferous tubules containing apoptotic spermatogonia, spermatoctyes, round spermatids and spermatozoa per 100 seminiferous tubules (Drumond, et al., 2011).
Statistical analyses of the majority of the data was performed using the Sigma Plot 12 program (Jandel, San Rafael, Calif.). The data were analyzed by using t-tests and one-way ANOVA followed by Student-Newman-Keuls Method. P-values of less than 0.05 (P<0.05) were considered significant. In in vivo experiments when the testicular sections were assessed for apoptosis, a mixed model used the percentage of tubules with apoptosis as the dependent variable. Two different stages (Early or Late Vs Middle) and four treatment groups (Control, HN CP, CP+HN) as well as the interaction term were included in the model as independent variables. Persons who did the experiment were considered as a random effect to accommodate a potential heterogeneous variance in the model. Least Square Means and their differences were computed and tested using the Tukey's adjustment for multiple pair-wise comparisons. A residual analysis was done to check for the model assumptions. All the data analysis was carried out using SAS 9.3 (Cary, N.C. USA).

male germ cells [2] = format: in vivo, mouse
Experimental: as §1, §2
Detection of apoptotic cells was performed in Bouin's′-fixed, paraffin-embedded testicular sections by the terminal deoxynucleotidyl transferase (TdT)-mediated deoxy-UTP nick end labeling (TUNEL) technique (Sinha Hikim A P, et al., 1997) using an ApopTag-peroxidase kit (Chemicon International, Inc., Temecula, Calif.). Enumeration of the Sertoli cell nuclei with distinct nucleoli and apoptotic germ cell population was quantified at stages I-IV (early stages), stages VII-VIII (middle stages) and stages XI-XII (late stages) of the seminiferous epithelial cycle using an Olympus BH-2 microscope (New Hyde Park, N.Y.). Stages were identified according to the criteria proposed by Russell et al for paraffin sections (Russell L, 1977). The rate of germ cell apoptosis (apoptotic index, AI) was expressed as the number of apoptotic germ cells per Sertoli cells (Sinha Hikim A P, et al., 1997).

male germ cells [3] = system: male germ cells
[4] = EDS 80 mg/kg IP 3 days before, CP 70 mg/kg BW
[5] = rats not pre-treated with EDS, CP 70 mg/kg BW IP, 12 hours

O=P1(N(CCCl)CCCl)NCCCO1 (stereo not shown) [CP, cyclophosphamide monohydrate]
STAT3 phosphorylation (phosphorylated STAT3/STAT3) compared with control (STAT3): suppressed Ser727-phosphorylated STAT3 in testes | intratesticular testosterone levels (Leydig cells): had no significant effects | serum testosterone levels (Leydig cells): had no significant effects | germ cell apoptosis in testicular cross sections (TUNEL) compared to control (male germ cells [1]; HN 40 mg/Kg, CP 200 mg/Kg): significantly increased germ cell apoptosis | germ cell apoptosis, percentage of tubules with apoptotic cells, early-late stages (male germ cells [1]; early-late stages of spermatogenesis, 24 hours, CP 200 mg/Kg, HN 40 mg/Kg): significantly increased germ cell apoptosis | germ cell apoptosis, percentage of tubules with apoptotic cells, middle stages (male germ cells [1]; middle stages (V-VIII), 24 hours, CP 200 mg/Kg, HN 40 mg/Kg): significant increase in apoptosis | Apoptotic Index (AI), apoptotic germ cells per Sertoli cell, middle stages (male germ cells [2]; stages VII-VIII, 24 hours after single IP, CP 200 mg/Kg, HN, HN-S7A 40 mg/Kg, HNG, HNG-F6A 5 mg/Kg, monohydrate): 0.25±0.03 and 0.33±0.03 | CP induced germ cell apoptosis with versus without EDS pre-treatment, early and late stages (male germ cells [3]; CP 70 mg/kg BW): significantly lower in EDS pre-treated rats | germ cell apoptosis at early (I-VI) and late (IX-XIV) stages, EDS pre-treated rats, compared to control (male germ cells [3]; [4]): did not significantly increased germ cell apoptosis | germ cell apoptosis in middle (VII-VIII) stages, EDS pre-treated rats (male germ cells [3]; [4]): did not additively increased germ cell apoptosis caused by EDS treatment | germ cell apoptosis at early (I-VI) and late (IX-XIV) stages compared to control (male germ cells [3]; [5]): significantly increased germ cell apoptosis | germ cell apoptosis in the middle (VII-VIII) stages (male germ cells [3]; [5]): did not increase apoptosis in the middle (VII-VIII) stages

MAPRGFSCLLLLTSEIDLPVKRRA [HN]
STAT3 phosphorylation (phosphorylated STAT3/STAT3) compared with control (STAT3): did not change STAT3 phosphorylation | CP suppressed STAT3 (Ser727) phosphorylation (STAT3; with CP 200 mg/Kg): restored CP-induced Ser 727-phosphorylation of STAT3 | EDS-induced Leydig cell loss (Leydig cells; HN administered 3 days after EDS pre-treatment): did not reverse the EDS-induced Leydig cell loss | intratesticular testosterone levels (Leydig cells): had no significant effects | serum testosterone levels (Leydig cells): had no significant effects | germ cell apoptosis in testicular cross sections (TUNEL) compared to control (male germ cells [1]; HN 40 mg/Kg, CP 200 mg/Kg): had no significant effect on germ cell apoptosis | CP-induced germ cell apoptosis (male germ cells [1]; HN 40 mg/Kg IP about 15 minutes before CP 200 mg/Kg IP, 24 hours): attenuated the CP-induced germ cell apoptosis | spontaneous germ cell apoptosis, peptide alone (male germ cells [2]; single IP, 24 hours, no CP): did not change the spontaneous germ cell apoptosis | inhibition of (protection against) CP-induced germ cell apoptosis, early+late stages (male germ cells [2]; stages I-IV and XI-XII, HN, HN-C8P 40 mg/kg BW, HNG, HNG-F6A 5 mg/kg BW): ~57% and ~60% | effect on CP-induced germ cell apoptosis, middle stages (male germ cells [2]; stages VII-VIII, 40 mg/kg BW): not in middle stages | germ cell apoptosis at early and late stages in EDS pre-treated rats, addition of HN (male germ cells [3]; HN 40 mg/kg BW): did not significantly reduced germ cell apoptosis | CP effects at early and late stages in EDS pre-treated animals, addition of HN (male germ cells [3]; HN 40 mg/kg BW + CP + EDS): did not change the CP effects in EDS pre-treated animals | EDS-induced apoptosis of germ cells, middle stages (male germ cells [3]; HN 40 mg/kg BW IP 3 days after EDS): significantly reduced the EDS-induced apoptosis of germ cells | increase in apoptosis in CP+EDS group, middle stages (male germ cells [3]; concomitant HN 40 mg/kg BW): reduced by concomitant HN treatment | apoptosis in CP treated testis, middle (VII-VIII) stages (male germ cells [3]; rats not pre-treated with EDS, HN 40 mg/kg BW + CP): had no effect on CP treated testis | CP-induced apoptosis at early and late stages (male germ cells [3]; rats not pre-treated with EDS, HN 40 mg/kg BW IP + CP 70 mg/kg BW): significantly reduced CP-induced apoptosis
